# According to article PMC6222422, “Synthesis and Biological Evaluation of Novel Indole-Derived Thioureas” (Molecules : A Journal of Synthetic Chemistry and Natural …, 2018):
# Assays:
# Cytotoxicity, MTT method [1] = details: cattle (Bos taurus)
# YFV = assay: microbe, parasite or virus in culture; type: cell-based; details: Yellow fever virus, BHK, read-out: YFV EC50
# BVDV = assay: microbe, parasite or virus in culture; type: cell-based, bovine viral diarrhoea virus; details: Bovine viral diarrhea virus isolates and strains, MDBK, in Bos taurus, read-out: BVDV EC50
# Cytotoxicity, MTT method [2] = details: Syrian hamster (Mesocricetus auratus)
# Cytotoxicity, MTT method [3] = details: African green monkey (Cercopithecus aethiops)
# RSV = assay: microbe, parasite or virus in culture; type: cell-based, human respiratory syncytial virus; details: for EC50: human respiratory syncytial virus, Vero 76, read-out: RSV EC50
# VSV = assay: microbe, parasite or virus in culture; type: cell-based; details: Vesicular stomatitis virus, Vero 76, read-out: VSV EC50
# Reo-1 = assay: microbe, parasite or virus in culture; type: cell-based, reovirus type-1; details: Reovirus sp., BHK, read-out: Reo-1 EC50
# HIV-1 = assay: microbe, parasite or virus in culture; details: Human immunodeficiency virus 1, MT4, read-out: HIV-1 EC50
# HSV-1 = assay: microbe, parasite or virus in culture; type: cell-based, human herpes 1; details: Human alphaherpesvirus 1, Vero 76, read-out: HSV-1 EC50
# Cytotoxicity, MTT method [4] = details: human
# VV = assay: microbe, parasite or virus in culture; type: cell-based; details: Orthopoxvirus vaccinia, Vero 76, read-out: VV EC50
# CV-B5 = assay: microbe, parasite or virus in culture; type: cell-based, coxsackievirus B5; details: Enterovirus B, CVB5, Vero 76, read-out: CV-B5 EC50
# Sb-1 = assay: microbe, parasite or virus in culture; type: cell-based, poliovirus type-1; details: Enterovirus C, Vero 76, read-out: Sb-1 EC50
# in vitro = details: human
# [5] = system: HIV-1 A17 (K103N + Y181C mutant); assay: microbe, parasite or virus in culture; type: cell-based, Human Immunodeficiency Virus type-1; details: Human immunodeficiency virus 1, MT4, 96 h, read-out: EC50 A17
# [6] = system: HIV-1 AZT^R strain (67N, 70R, 215F, 219Q); assay: microbe, parasite or virus in culture; type: cell-based, Human Immunodeficiency Virus type-1; details: Human immunodeficiency virus 1, MT4, read-out: EC50 AZT^R
# [7] = system: HIV-1 EFV^R (K103R + V179D + P225H mutant); assay: microbe, parasite or virus in culture; type: cell-based, Human Immunodeficiency Virus type-1; details: Human immunodeficiency virus 1, MT4, 96 h, read-out: EC50 EFV^R
# [8] = system: HIV-1 N119 (Y181C mutant); assay: microbe, parasite or virus in culture; type: cell-based, Human Immunodeficiency Virus type-1; details: Human immunodeficiency virus 1, MT4, read-out: EC50 N119
smiles,measurement,setting,value
"C[C@@]1(O)[C@H](O)[C@@H](CO)O[C@H]1n1cnc2c(=O)[nH]c(N)nc21 [2′-C-methyl-guanosine, 2′-C-methylguanosine, reference compound]",CC50,"Cytotoxicity, MTT method [1]",> 10 µM
same,EC50,YFV,1.9 ± 0.1 µM
same,EC50,BVDV,1.1 ± 0.1 µM
same,CC50,"Cytotoxicity, MTT method [2]",> 10 µM
"O=c1cnn([C@@H]2O[C@H](CO)[C@@H](O)[C@H]2O)c(=O)[nH]1 [6-Aza-uridine, 6-azauridine, reference compound]",CC50,"Cytotoxicity, MTT method [3]",12 µM
same,EC50,RSV,1.4 ± 0.06 µM
"Cc1ccc(NC(=S)NCCc2c[nH]c3ccccc23)cc1 [Compound 3, 1-(2-(1H-Indol-3-yl)ethyl)-3-(4-methylphenyl)thiourea]",EC50,VSV,> 75 µM
same,EC50,Reo-1,> 16 µM
same,CC50,"Cytotoxicity, MTT method [1]",> 100 µM
same,CC50,"Cytotoxicity, MTT method [3]",75 µM
same,EC50,HIV-1,> 33 µM
same,EC50,HSV-1,> 75 µM
same,CC50,"Cytotoxicity, MTT method [4]",33 µM
same,EC50,VV,> 75 µM
same,EC50,YFV,> 16 µM
same,activity against RSV (in words),RSV,moderately active
same,EC50,RSV,20 ± 3 µM
same,EC50,CV-B5,> 75 µM
same,EC50,BVDV,≥ 100 µM
same,EC50,Sb-1,> 75 µM
same,CC50,"Cytotoxicity, MTT method [2]",16 µM
O=C1Nc2ccc(Cl)cc2[C@@](C#CC2CC2)(C(F)(F)F)O1 [Efavirenz],CC50,in vitro,40 µM
same,EC50,[5],0.075 ± 0.009 µM
same,EC50,[6],0.001 ± 0.0002 µM
same,EC50,[7],7 ± 0.8 µM
same,EC50,[8],0.018 ± 0.002 µM
